The assay concerns Hedgehog pathway. Kind of assay: Gli-Luc assay (Hedgehog-responsive Luciferase reporter), 10T1/2(s12) cells with OCT-SHH. As to conditions: OCT-SHH 0.3 μg/ml. The assay is classed as cell-based. As to the method:
Compounds to be tested are dissolved in DMSO to a concentration of 10 MM, and stored at −20° C. To activate the Hedgehog pathway in the assay cells, an octylated (lipid-modified) form of the N-terminal fragment of the Sonic Hedgehog protein (OCT-SHH) is used. This N-terminal SHH fragment is produced bacterially.
Compounds may be tested in the “Gli-Luc” assay below, using the cell line 10T(s12), wherein the cells contain a Hedgehog-responsive reporter construct utilizing Luciferase as the reporter gene. In this way, Hedgehog pathway signaling activity can be measured via the Gli-Luc response.
10t1/2(s12) cells are plated in a 96-well micro-titer plate (MTP) at 20,000 cells/well in full medium [DMEM with 10% FBS]. Then plates are placed in the incubator for incubation overnight (O/N), at 37° C. and 5% CO2. After 24 h, the medium is replaced with Luciferase-assay medium (DMEM with 0.5% FBS). Compounds are thawed and diluted in assay medium at 3:1000 (about 300-fold) resulting in a starting concentration of about 30 μM.
Subsequently, 150 μl of each 30 μM sample is added to the first wells (in triplicate). The MTP samples are then diluted at 3-fold dilutions to a total of seven wells, ultimately resulting in a regiment of seven dilutions in triplicate, for each compound. Next, the protein ligand OCT-SHH is diluted in Luciferase-assay medium and added to each well at a final concentration of 0.3 μg/ml. Plates are then returned to the incubator for further incubation O/N, at 37° C. and 5% CO2. After about 24 h, plates are removed from the incubator and the medium is aspirated/discarded. Wells are washed once with assay buffer [PBS +1 mM Mg^2+and 1 mM Ca^2+]. Then 50 μl of assay buffer is added to each well. The Luciferase assay reagent is prepared as described by the vendor (LucLite kit from Packard), and 50 μl is added to each well. Plates are incubated at room temperature (RT) for about 30 minutes after which the signals are read, again at RT, on a Topcount (Packard).
What is called IC50 is the concentration at which inhibition is half-maximal. `O=C(C1CC(N(Cc2cccs2)C(=O)C2CC2)CN1Cc1ccc2c(c1)OCO2)N1CCNCC1` (stereo not drawn) [V] had an IC50 below 1 µM.
The figure for `Cc1ccccc1CN(CCc1ccccc1)C1CC(C(=O)NCC2CCC(CN)CC2)N(Cc2ccc3c(c2)OCO3)C1` (stereo not drawn) [I′] is below 10 µM; for `Cc1ccc(CN2CC(N(CCc3ccccc3)Cc3ccc(F)cc3)CC2C(=O)NCCN)s1` (stereo not drawn) [H′] it is below 10 µM.
The value for `C=CCOC(=O)N(Cc1cccc(OC)c1)[C@H]1C[C@@H](C(=O)N2CCNCC2)N(Cc2ccc3c(c2)OCO3)C1` [M″] was below 1 µM.
The figure for `COc1cccc(CN(C(=O)CC(C)(C)C)[C@H]2C[C@@H](C(=O)NC3CCNCC3)N(Cc3ccc4c(c3)OCO4)C2)c1` [B′″] is below 1 µM.
Molecule `NCCNC(=O)C1CC(N(CCc2ccccc2)Cc2ccc([N+](=O)[O-])cc2)CN1CC1CCCCC1` (stereo not drawn) [F′] yielded an IC50 below 10 µM.
In turn, `COc1cccc(CN(C(=O)CC(C)(C)C)C2CC(C(=O)N3CCNCC3)N(Cc3cc(Br)cs3)C2)c1` (stereo not drawn) [L] showed an IC50 below 10 µM.
Molecule `CCN1CCC(N(CC)C(=O)[C@@H]2C[C@H](N(Cc3cccc(OC)c3)C(=O)CC(C)(C)C)CN2Cc2ccc3c(c2)OCO3)C1` (stereo partly drawn) [E′″] displayed an IC50 below 10 µM.
In turn, `Cc1ccc(CN2CC(N(Cc3cccs3)C(=O)C3CC3)CC2C(=O)N2CCNCC2)s1` (stereo not drawn) [U] registered an IC50 below 1 µM.
The molecule `COc1cccc(CN(C(=O)C2CCCC2)C2CC(C(=O)N3CCNCC3)N(Cc3ccc(OC)c(OC)c3OC)C2)c1` (stereo not drawn) [V′] came in with a half-inhibitory concentration (IC50) below 1 µM.
The value for `COc1cccc(CN(C(=O)CC(C)(C)C)C2CC(C(=O)N3CCNCC3)N(Cc3ccc4c(c3)OCCO4)C2)c1` (stereo not drawn) [J] was below 0.1 µM.
The figure for `COc1cccc(CN(C(=O)CC(C)(C)C)C2CC(C(=O)N3CCNCC3)N(Cc3ccc(-c4cc(C(F)(F)F)n(C)n4)s3)C2)c1` (stereo not drawn) [E″] is below 10 µM.
The figure for `COc1cccc(CN(C(=O)CC(C)(C)C)[C@H]2C[C@@H](C(=O)N(C)C3CCNC3)N(Cc3ccc4c(c3)OCO4)C2)c1` (stereo partly drawn) [D′″] is below 10 µM.
The molecule `COc1cccc(CN(C(=O)C(C)C)C2CC(C(=O)N3CCNCC3)N(Cc3ccc(OC)c(OC)c3OC)C2)c1` (stereo not drawn) [P′] came in with an IC50 below 10 µM.
The figure for `COc1cccc(CN(C(=O)NC(C)C)[C@H]2C[C@@H](C(=O)N3CCNCC3)N(Cc3ccc4c(c3)OCO4)C2)c1` [O″] is below 1 µM.
The figure for `Cc1ccc(CN2CC(N(Cc3cccs3)C(=O)c3cccs3)CC2C(=O)N2CCNCC2)s1` (stereo not drawn) [D′] is below 10 µM; for `COc1cccc(CN(C(=O)CC(C)(C)C)C2CC(C(=O)N3CCNCC3)N(Cc3ccccc3)C2)c1` (stereo not drawn) [R] it is below 1 µM.
As for `COc1cccc(CN(C(=O)CC2CCCC2)C2CC(C(=O)N3CCNCC3)N(Cc3ccc4c(c3)OCO4)C2)c1` (stereo not drawn) [K″], the half-inhibitory concentration (IC50) was below 1 µM.
The value for `Cc1cccc(CN(C(=O)CC(C)C)[C@H]2C[C@@H](C(=O)N3CCNCC3)N(Cc3ccc4c(c3)OCO4)C2)c1` [R″] was below 1 µM; that for `COc1cccc(CN2CC(N(Cc3cccc(OC)c3)C(=O)C3CC3)CC2C(=O)N2CCNCC2)c1` (stereo not drawn) [C] was below 1 µM.
The value for `COc1cccc(CN(C(=O)CC(C)(C)C)[C@H]2C[C@@H](C(=O)N3CCNCC3)N(Cc3ccc(C=O)s3)C2)c1` [H″] was below 10 µM.
The value for `CC(C)(C)CC(=O)N(Cc1ccccc1)C1CC(C(=O)NCCN)N(CC2CCCCC2)C1` (stereo not drawn) [Y] was below 10 µM.
Turning to `COc1cccc(CN(C(=O)CC(C)C(F)(F)F)C2CC(C(=O)N3CCNCC3)N(Cc3ccc4c(c3)OCO4)C2)c1` (stereo not drawn) [L″], the concentration for half-maximal inhibition (IC50) was below 1 µM.
Take `COc1cccc(CN(C(=O)CC(C)(C)C)C2CC(C(=O)N3CCNCC3)N(Cc3ccc(SC)s3)C2)c1` (stereo not drawn) [Z′]: the IC50 was below 1 µM.
Take `COc1cccc(CN(C(=O)NC(C)(C)C)[C@H]2C[C@@H](C(=O)N3CCNCC3)N(Cc3ccc4c(c3)OCO4)C2)c1` [I″]: the IC50 was below 0.1 µM.
The value for `O=C(C1CC(N(CC2CCCCC2)CC2CCCO2)CN1Cc1ccc(F)cc1)N1CCNCC1` (stereo not drawn) [E′] was below 10 µM; that for `COc1cccc(CN(C(=O)C(C)C)C2CC(C(=O)N3CCNCC3)N(Cc3ccc(C)s3)C2)c1` (stereo not drawn) [O] was below 0.1 µM; that for `COc1cccc(CN(C(=O)c2cccs2)C2CC(C(=O)N3CCNCC3)N(Cc3ccc(C)s3)C2)c1` (stereo not drawn) [A] was below 1 µM.
The figure for `COc1cccc(CN(C(=O)C2CCC2)C2CC(C(=O)N3CCNCC3)N(Cc3ccc4c(c3)OCCO4)C2)c1` (stereo not drawn) [U′] is below 1 µM; for `COc1cccc(CN(C(=O)CC(C)(C)C)C2CC(C(=O)N3CCNCC3)N(Cc3cc4ccsc4s3)C2)c1` (stereo not drawn) [Y′] it is below 1 µM.
The value for `Cc1ccccc1CN(C(=O)CC(C)C)C1CC(C(=O)N2CCNCC2)N(Cc2ccc3c(c2)OCO3)C1` (stereo not drawn) [V″] was below 1 µM; that for `COc1cccc(CN(C(=O)C(C)C)C2CC(C(=O)N3CCNCC3)N(Cc3ccc4c(c3)OCO4)C2)c1` (stereo not drawn) [P] was below 0.1 µM.
In the case of `COc1cccc(CN(C(=O)CC(C)(C)C)C2CC(C(=O)N3CCNCC3)N(Cc3ccc(C)s3)C2)c1` (stereo not drawn) [M′], the half-inhibitory concentration (IC50) is below 0.1 µM.
The figure for `COc1cccc(CN(C(=O)CC(C)C)C2CC(C(=O)N3CCNCC3)N(Cc3ccc(OC)c(OC)c3OC)C2)c1` (stereo not drawn) [Compound I] is below 10 µM; for `CC(C)CC(=O)N(Cc1cccc(O)c1)C1CC(C(=O)N2CCNCC2)N(Cc2ccc3c(c2)OCO3)C1` (stereo not drawn) [T″] it is below 1 µM.
The figure for `COc1cccc(CN(C(=O)CC(C)(C)C)C2CC(C(=O)N3CCNCC3)N(Cc3cc4ccccc4n3C)C2)c1` (stereo not drawn) [F″] is below 10 µM.
The value for `COc1cccc(CN(C(=O)CC(C)(C)C)C2CC(C(=O)N3CCNCC3)N(Cc3ccc4c(c3)OCO4)C2)c1` (stereo not drawn) [O′] was below 0.1 µM; that for `CC(C)CC(=O)N(Cc1cccc([N+](=O)[O-])c1)C1CC(C(=O)N2CCNCC2)N(Cc2ccc3c(c2)OCO3)C1` (stereo not drawn) [U″] was below 10 µM; that for `CC(C)CC(=O)N(Cc1cccc(SC(F)(F)F)c1)C1CC(C(=O)N2CCNCC2)N(Cc2ccc3c(c2)OCO3)C1` (stereo not drawn) [X″] was below 10 µM.
In the case of `COc1cccc(CN(C(=O)C2CC2)C2CC(C(=O)N3CCNCC3)N(CC3CCCCC3)C2)c1` (stereo not drawn) [S], the 50% inhibitory concentration (IC50) was below 1 µM.
As for `COc1cccc(CN(C(=O)CC(C)C)C2CC(C(=O)N3CCNCC3)N(Cc3ccc(C)s3)C2)c1` (stereo not drawn) [X′], the IC50 was below 0.1 µM.
The value for `CCc1ccc(CN2CC(N(Cc3cccc(OC)c3)C(=O)CC(C)(C)C)CC2C(=O)N2CCNCC2)s1` (stereo not drawn) [A″] was below 1 µM; that for `CC(C)CC(=O)N(Cc1ccccc1OC(F)F)C1CC(C(=O)N2CCNCC2)N(Cc2ccc3c(c2)OCO3)C1` (stereo not drawn) [W″] was below 10 µM.
The figure for `COc1cccc(CN2CC(N(CCc3ccccc3)Cc3ccccc3C)CC2C(=O)NCCN)c1` (stereo not drawn) [G′] is below 10 µM.
The value for `COc1cccc(CN(C(=O)CC(C)C)C2CC(C(=O)N3CCNCC3)N(Cc3ccc4c(c3)OCCO4)C2)c1` (stereo not drawn) [R′] was below 1 µM; that for `COc1cccc(CN(C(=O)CC(C)(C)C)C2CC(C(=O)N3CCNCC3)N(CC3CCCCC3)C2)c1` (stereo not drawn) [T] was below 1 µM; that for `COc1cccc(CN(C(=O)CC(C)(C)C)[C@H]2C[C@@H](C(=O)N3CCNCC3)N(Cc3ccc(-c4cccs4)s3)C2)c1` [D″] was below 10 µM.
As to `COc1cccc(CN(C(=O)CC(C)(C)C)[C@H]2C[C@@H](C(=O)N3CCN[C@@H](C)C3)N(Cc3ccc4c(c3)OCO4)C2)c1` [Z″], the IC50 is below 1 µM.
`CC(C)CN(C(=O)c1cccs1)C1CC(C(=O)NC2CCC(N)CC2)N(CC2CCCCC2)C1` (stereo not drawn) [J′] yielded an IC50 below 10 µM.
The value for `COc1cccc(CN(C(=O)C2CCC2)C2CC(C(=O)N3CCNCC3)N(Cc3ccc(OC)c(OC)c3OC)C2)c1` (stereo not drawn) [T′] was below 1 µM; that for `COc1cccc(CN2CC(N(Cc3cccc(OC)c3)C(=O)CC(C)(C)C)CC2C(=O)N2CCNCC2)c1` (stereo not drawn) [F] was below 1 µM.
`COc1cccc(CN(C(=O)C2CC2)C2CC(C(=O)N3CCNCC3)N(Cc3ccc4c(c3)OCO4)C2)c1` (stereo not drawn) [E] gave a half-inhibitory concentration (IC50) below 0.1 µM.
The value for `COc1cccc(CN(C(=O)C2CC2)C2CC(C(=O)N3CCNCC3)N(Cc3ccc(OC)c(OC)c3OC)C2)c1` (stereo not drawn) [N′] was below 1 µM; that for `CCOc1cc(CN2CC(N(Cc3cccc(OC)c3)C(=O)CC(C)(C)C)CC2C(=O)N2CCNCC2)ccc1OC` (stereo not drawn) [K′] was below 10 µM; that for `COc1cccc(CN(C(=O)CC2CC2)[C@H]2C[C@@H](C(=O)N3CCNCC3)N(Cc3ccc4c(c3)OCO4)C2)c1` [J″] was below 0.1 µM.
The value for `COc1cccc(CN2CC(N(Cc3cccc(OC)c3)C(=O)c3cccs3)CC2C(=O)N2CCNCC2)c1` (stereo not drawn) [Q] was below 1 µM; that for `CCNCCCN(CC)C(=O)[C@@H]1C[C@H](N(Cc2cccc(OC)c2)C(=O)CC(C)(C)C)CN1Cc1ccc2c(c1)OCO2` [F′″] was below 1 µM; that for `COc1cccc(CN(C(=O)CC(C)(C)C)C2CC(C(=O)N3CCCNCC3)N(Cc3ccc4c(c3)OCO4)C2)c1` (stereo not drawn) [Z] was below 1 µM.
The figure for `O=C(C1CC(N(CC2CCCCC2)CC2CC2)CN1Cc1ccc(F)cc1)N1CCCNCC1` (stereo not drawn) [C′] is below 10 µM.
The molecule `NCCNC(=O)C1CC(N(CCc2ccccc2)C(=O)C2CCCCC2)CN1CC1CCCCC1` (stereo not drawn) [B′] displayed a 50% inhibitory concentration (IC50) below 10 µM.

(Values after US20020165221A1, “Mediators of hedgehog signaling pathways, compositions and uses related thereto” (priority 2000, published 2002).)
